According to US20050197350A1, “Novel quinoline, tetrahydroquinazoline, and pyrimidine derivatives and methods of treatment related to the use thereof” (TAISHO PHARMACEUTICAL CO., LTD., priority 2003, published 2005):
Counter-ions that a name gives are not always drawn. Like-named read-outs stand apart in the source and are kept apart here. Each block holds one compound with its values, some of them ahead of it.

Target: MCH receptor (Homo sapiens, UniProt Q99705)
Assay: High throughput functional screening FLIPR/FDSS6000 (intracellular Ca2+ evoked by MCH)
Assay type: cell-based
Conditions: FLIPR/FDSS, antagonist activity vs 50 nM MCH, class by percent of control at 10^−7 M or IC50, read-out: class
Procedure, shortened: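 For antagonist testing, compound-treated cells (30 min, 37 °C) were stimulated with 50 nM MCH and intracellular Ca2+ followed by Fluo4 fluorescence on FLIPR/FDSS6000. Receptor was a constitutively active, non-endogenous MCH receptor; dye loading 4 μM Fluo4-AM, 1 h, 37 °C.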

SMILES: Cc1cnc(N[C@H]2CC[C@@H](NC(=O)Nc3ccc(Cl)c(Cl)c3)CC2)nc1N(C)C [Example 3337, N-(3,4-dichlorophenyl)-N′-(cis-4-{[4-(dimethylamino)-5-methylpyrimidin-2-yl]amino}cyclohexyl)urea]
IC50: 50 to 200 nM

SMILES: CCN(C(=O)N[C@H]1CC[C@@H](Nc2ncc(C)c(N(C)C)n2)CC1)c1cccc(C)c1 [Example 3355, N′-(cis-4-{[4-(dimethylamino)-5-methylpyrimidin-2-yl]amino}cyclohexyl)-N-ethyl-N-(3-methylphenyl)urea]
IC50: < 50 nM

SMILES: O=C(O)c1cccc(C(=O)N[C@H]2CC[C@@H](Nc3ccc4ccccc4n3)CC2)c1 [Example 3150, N-[cis-4-(Quinolin-2-ylamino)-cyclohexyl]-isophthalamic acid]
IC50 (table after the classification): > 200 nM

SMILES: Cc1cc(N[C@H]2CC[C@@H](C(=O)N[C@H](C)c3ccccc3F)CC2)nc2ccccc12 [Example 3311, cis-N-[(1R)-1-(2-fluorophenyl)ethyl]-4-[(4-methylquinolin-2-yl)amino]cyclohexanecarboxamide]
IC50: > 200 nM

SMILES: CN(C)c1cc(Cl)nc(N[C@H]2CC[C@@H](NC(=O)c3ccc(F)c(F)c3)CC2)n1 [Example 3234, N-[cis-4-(6-Chloro-4-dimethylamino-pyrimidin-2-ylamino)-cyclohexyl]-3,4-difluoro-benzamide hydrochloride]
IC50 (table after the classification): > 200 nM

SMILES: Cc1cc(N(C)C)nc(N[C@H]2CC[C@@H](NC(=O)NC(C)(C)c3ccc(Cl)cc3)CC2)n1 [Example 3265, N-[1-(4-chlorophenyl)-1-methylethyl]-N′-(cis-4-{[4-(dimethylamino)-6-methylpyrimidin-2-yl]amino}cyclohexyl)urea]
IC50: 50 to 200 nM

SMILES: CN(C)c1ccnc(N[C@H]2CC[C@@H](NC(=O)Nc3cccc(Cl)c3Cl)CC2)n1 [Example 3218, 1-(2,3-Dichloro-phenyl)-3-[cis-4-(4-dimethylamino-pyrimidin-2-ylamino)-cyclohexyl]-urea hydrochloride]
IC50 (table after the classification): > 200 nM

SMILES: Cc1cc(N[C@H]2CC[C@@H](NC(=O)c3cc(F)ccc3F)CC2)nc2ccccc12 [Example 3164, 2,5-Difluoro-N-[cis-4-(4-methyl-quinolin-2-ylamino)-cyclohexyl]-benzamide hydrochloride]
IC50 (table after the classification): 50 to 200 nM

SMILES: CN(C)c1cc(N[C@H]2CC[C@@H](CNC(=O)Nc3cccc(Cl)c3Cl)CC2)nc2ccccc12 [Example 3191, 1-(2,3-Dichloro-phenyl)-3-[cis-4-(4-dimethylamino-quinolin-2-ylamino)-cyclohexylmethyl]-urea hydrochloride]
IC50 (table after the classification): 50 to 200 nM

SMILES: Cc1cnc(N[C@H]2CC[C@@H](NC(=O)c3cccnc3S(=O)(=O)c3ccoc3C)CC2)nc1N(C)C [Example 3290, N-(cis-4-{[4-(dimethylamino)-5-methylpyrimidin-2-yl]amino}cyclohexyl)-2-[(2-methyl-3-furyl)sulfonyl]nicotinamide]
IC50: > 200 nM

SMILES: Cc1cc(N(C)C)nc(N[C@H]2CC[C@@H](NC(=O)c3cccnc3S(=O)(=O)c3cccc(Cl)c3)CC2)n1 [Example 3370, 2-[(3-chlorophenyl)sulfonyl]-N-(cis-4-{[4-(dimethylamino)-6-methylpyrimidin-2-yl]amino}cyclohexyl)nicotinamide]
IC50: 50 to 200 nM

SMILES: Cc1cnc(N[C@H]2CC[C@@H](NC(=O)Nc3cccc(Cl)c3Cl)CC2)nc1N(C)C [Example 3343, N-(2,3-dichlorophenyl)-N′-(cis-4-{[4-(dimethylamino)-5-methylpyrimidin-2-yl]amino}cyclohexyl)urea]
IC50: > 200 nM

SMILES: NC(=O)c1cc(N[C@H]2CC[C@@H](NC(=O)c3ccc(F)c(F)c3)CC2)nc2ccccc12 [Example 3236, 2-(cis-4-{[1-(3,4-Difluoro-phenyl)-methanoyl]-amino}-cyclohexylamino)-quinoline-4-carboxylic acid amide]
IC50 (table after the classification): > 200 nM

SMILES: Cc1cnc(N[C@H]2CC[C@@H](NCC(=O)c3ccc(Cl)cc3)CC2)nc1N(C)C [Example 3260, 1-(4-chlorophenyl)-2-[(cis-4-{[4-(dimethylamino)-5-methylpyrimidin-2-yl]amino}cyclohexyl)amino]ethanone]
IC50: 50 to 200 nM

SMILES: COc1nc(N[C@H]2CC[C@@H](NC(=O)c3ccc(Cl)cc3)CC2)ncc1C [Example 3276, 4-chloro-N-{cis-4-[(4-methoxy-5-methylpyrimidin-2-yl)amino]cyclohexyl}benzamide]
IC50: > 200 nM

SMILES: CN(C)c1ccnc(N[C@H]2CC[C@@H](NC(=O)c3ccc(F)c(F)c3)CC2)n1 [Example 3197, N-[cis-4-(4-Dimethylamino-pyrimidin-2-ylamino)-cyclohexyl]-3,4-difluoro-benzamide hydrochloride]
IC50 (table after the classification): 50 to 200 nM

Next, values leading:

IC50 (table after the classification): 50 to 200 nM
SMILES: O=C(NC[C@H]1CC[C@@H](Nc2ccc3ccccc3n2)CC1)c1ccc(F)c(F)c1 [Example 3068, 3,4-Difluoro-N-[cis-4-(quinolin-2-ylamino)-cyclohexylmethyl]-benzamide hydrochloride]

IC50 (table after the classification): 50 to 200 nM
SMILES: CN(C)c1ccnc(N[C@H]2CC[C@@H](CNC(=O)c3ccc(F)c(F)c3)CC2)n1 [Example 3219, N-[cis-4-(4-Dimethylamino-pyrimidin-2-ylamino)-cyclohexylmethyl]-3,4-difluoro-benzamide hydrochloride]

IC50 (table after the classification): < 50 nM
SMILES: Cc1cc(N[C@H]2CC[C@@H](NC(=O)c3ccc4nonc4c3)CC2)nc2ccccc12 [Example 3085, Benzo[2,1,3]oxadiazole-5-carboxylic acid-[cis-4-(4-methyl-quinolin-2-ylamino)-cyclohexyl]-amide hydrochloride]

IC50 (table after the classification): 50 to 200 nM
SMILES: CN(C)c1nc(N[C@H]2CC[C@@H](NC(=O)c3cccnc3Oc3ccccc3)CC2)ncc1F [Example 3140, N-[cis-4-(4-Dimethylamino-5-fluoro-pyrimidin-2-ylamino)-cyclohexyl]-2-phenoxy-nicotinamide hydrochloride]

IC50 (table after the classification): < 50 nM
SMILES: Cc1cnc(N[C@H]2CC[C@@H](NC(=O)c3cccnc3Oc3ccccc3)CC2)nc1N(C)C [Example 3120, N-[cis-4-(4-Dimethylamino-5-methyl-pyrimidin-2-ylamino)-cyclohexyl]-2-phenoxy-nicotinamide hydrochloride]

IC50 (table after the classification): < 50 nM
SMILES: Cc1cc(N[C@H]2CC[C@@H](NC(=O)c3cccnc3Oc3ccc(F)c(Cl)c3)CC2)nc2ccccc12 [Example 3096, 2-(3-Chloro-4-fluoro-phenoxy)-N-[cis-4-(4-methyl-quinolin-2-ylamino)-cyclohexyl]-nicotinamide hydrochloride]

IC50 (table after the classification): < 50 nM
SMILES: O=C(N[C@H]1CC[C@@H](Nc2ccc3ccccc3n2)CC1)c1ccc(F)c(Cl)c1 [Example 3038, 3-Chloro-4-fluoro-N-[cis-4-(quinolin-2-ylamino)-cyclohexyl]-benzamide hydrochloride]

IC50 (table after the classification): < 50 nM
SMILES: Cc1cc(N[C@H]2CC[C@@H](NC(=O)c3cccnc3Oc3ccc(F)c(F)c3)CC2)nc2ccccc12 [Example 3091, 2-(3,4-Difluoro-phenoxy)-N-[cis-4-(4-methyl-quinolin-2-ylamino)-cyclohexyl]-nicotinamide hydrochloride]

IC50 (table after the classification): < 50 nM
SMILES: CN(C)c1nc(N[C@H]2CC[C@@H](NC(=O)c3ccc4nonc4c3)CC2)nc2c1CCCC2 [Example 3111, Benzo[2,1,3]oxadiazole-5-carboxylic acid-[cis-4-(4-dimethylamino-5,6,7,8-tetrahydro-quinazolin-2-ylamino)-cyclohexyl]-amide hydrochloride]

IC50 (table after the classification): < 50 nM
SMILES: CCN(CC(=O)N[C@H]1CC[C@@H](Nc2ccc3ccccc3n2)CC1)c1ccccc1 [Example 3151, C-(Ethyl-phenyl-amino)-N-[cis-4-(quinolin-2-ylamino)-cyclohexyl]-acetamide dihydrochloride]

IC50 (table after the classification): 50 to 200 nM
SMILES: CN(C)c1nc(N[C@H]2CC[C@@H](CNC(=O)Nc3cccc(Cl)c3Cl)CC2)nc2c1CCCC2 [Example 3196, 1-(2,3-Dichloro-phenyl)-3-[cis-4-(4-dimethylamino-5,6,7,8-tetrahydro-quinazolin-2-ylamino)-cyclohexylmethyl]-urea hydrochloride]

IC50 (table after the classification): < 50 nM
SMILES: Cc1cc(N[C@H]2CC[C@@H](NC(=O)c3cccnc3Oc3ccc(Br)cc3)CC2)nc2ccccc12 [Example 3094, 2-(4-Bromo-phenoxy)-N-[cis-4-(4-methyl-quinolin-2-ylamino)-cyclohexyl]-nicotinamide hydrochloride]

IC50 (table after the classification): < 50 nM
SMILES: Cc1cccc(C(=O)N[C@H]2CC[C@@H](Nc3ncc(C)c(N(C)C)n3)CC2)c1 [Example 3121, N-[cis-4-(4-Dimethylamino-5-methyl-pyrimidin-2-ylamino)-cyclohexyl]-3-methyl-benzamide hydrochloride]

IC50 (table after the classification): < 50 nM
SMILES: O=C(N[C@H]1CC[C@@H](Nc2ccc3ccccc3n2)CC1)c1ccc(Br)o1 [Example 3053, 5-Bromo-furan-2-carboxylic acid [cis-4-(quinolin-2-ylamino)-cyclohexyl]-amide hydrochloride]

IC50 (table after the classification): < 50 nM
SMILES: CNc1nc(N[C@H]2CC[C@@H](CNCc3ccc(Br)cc3OC(F)(F)F)CC2)nc2c1CCCC2 [Example 11, N^2-{cis-4-[(4-Bromo-2-trifluoromethoxy-beny)amino-methyl]-cyclobexyl}-N^4-methyl-5,6,7,8-tetrahydro-quinazoline-2,4-diamine dihydrochloride]

IC50 (table after the classification): < 50 nM
SMILES: O=C(N[C@H]1CC[C@@H](Nc2ccc3ccccc3n2)CC1)c1cccnc1Oc1ccc(Br)cc1 [Example 3058, 2-(4-Bromo-phenoxy)-N-[cis-4-(quinolin-2-ylamino)-cyclohexyl]-nicotinamide hydrochloride]

IC50 (table after the classification): < 50 nM
SMILES: CCN(CC(=O)N[C@H]1CC[C@@H](Nc2nccc(N(C)C)n2)CC1)c1ccccc1 [Example 3202, N-[cis-4-(4-Dimethylamino-pyrimidin-2-ylamino)-cyclohexyl]-C-(ethyl-phenyl-amino)-acetamide dihydrochloride]

IC50 (table after the classification): < 50 nM
SMILES: CN(C)c1ccnc(N[C@H]2CC[C@@H](NC(=O)c3cc(F)c(F)c(F)c3)CC2)n1 [Example 3216, N-[cis-4-(4-Dimethylamino-pyrimidin-2-ylamino)-cyclohexyl]-3,4,5-trifluoro-benzamide hydrochloride]
